Test results reported in the supplement of paper PMC10307832.

Key:
Experiment in all cases: relative viability (nuclei count vs DMSO), 5 days (fraction); higher = more cells survive
RO-3306 + Crizotinib = compound: C1=CC2=C(C=CC(=C2)C=C3C(=O)NC(=NCC4=CC=CS4)S3)N=C1 [RO-3306] + C[C@@H](Oc1cc(-c2cnn(C3CCNCC3)c2)cnc1N)c1c(Cl)ccc(F)c1Cl [Crizotinib] (partner 1 µM)
Method in brief: (§1)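 Values are medians from duplicate plates. Each reflects relative viability, defined as the nuclei count of treated wells over that of vehicle wells. Lung cancer cell lines in 1536-well plates were pin-tool dosed one day after seeding with one drug alone or with a fixed anchor-drug dose plus five library-drug doses (not always all listed) in √10 steps, then fixed, stained and imaged at 4× after 5 days.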

[1] = compound: O=S(=O)(c1ccccc1)N(CC(F)(F)F)c1ccc(C(O)(C(F)(F)F)C(F)(F)F)cc1 + CC(=O)c1c(C)c2cnc(Nc3ccc(N4CCNCC4)cn3)nc2n(C2CCCC2)c1=O [Palbociclib] (partner 0.5 µM)
Method in brief: as §1

[2] = compound: O=S(=O)(c1ccccc1)N(CC(F)(F)F)c1ccc(C(O)(C(F)(F)F)C(F)(F)F)cc1 + CCNC(=O)c1noc(-c2cc(C(C)C)c(O)cc2O)c1-c1ccc(CN2CCOCC2)cc1 [Luminespib] (partner 0.01 µM)
Method in brief: as §1

[3] = compound: O=S(=O)(c1ccccc1)N(CC(F)(F)F)c1ccc(C(O)(C(F)(F)F)C(F)(F)F)cc1 + CS(=O)(=O)CCNCc1ccc(-c2ccc3ncnc(Nc4ccc(OCc5cccc(F)c5)c(Cl)c4)c3c2)o1 [Lapatinib] (partner 2 µM)
Method in brief: as §1

[4] = compound: O=S(=O)(c1ccccc1)N(CC(F)(F)F)c1ccc(C(O)(C(F)(F)F)C(F)(F)F)cc1 + N=C(N)NC(=N)NCCc1ccccc1 [Phenformin] (partner 250 µM)
Method in brief: as §1

[5] = compound: O=S(=O)(c1ccccc1)N(CC(F)(F)F)c1ccc(C(O)(C(F)(F)F)C(F)(F)F)cc1 + NC(=O)Nc1cc(-c2cccc(F)c2)sc1C(=O)N[C@H]1CCCNC1 [AZD7762] (partner 0.2 µM)
Method in brief: as §1

| Cell Line | relative viability (RO-3306 + Crizotinib; first compound 0.01 µM) | relative viability (RO-3306 + Crizotinib; first compound 0.03162 µM) | relative viability (RO-3306 + Crizotinib; first compound 0.1 µM) | relative viability (RO-3306 + Crizotinib; first compound 0.3162 µM) | relative viability (RO-3306 + Crizotinib; first compound 1 µM) | relative viability ([1]; first compound 0.8 µM) | relative viability ([1]; first compound 2.53 µM) | relative viability ([1]; first compound 8 µM) | relative viability ([2]; first compound 0.8 µM) | relative viability ([2]; first compound 2.53 µM) | relative viability ([2]; first compound 8 µM) | relative viability ([3]; first compound 0.8 µM) | relative viability ([3]; first compound 2.53 µM) | relative viability ([3]; first compound 8 µM) | relative viability ([4]; first compound 0.8 µM) | relative viability ([4]; first compound 2.53 µM) | relative viability ([4]; first compound 8 µM) | relative viability ([5]; first compound 0.8 µM) | relative viability ([5]; first compound 2.53 µM) | relative viability ([5]; first compound 8 µM) |
| --- | --- | --- | --- | --- | --- | --- | --- | --- | --- | --- | --- | --- | --- | --- | --- | --- | --- | --- | --- | --- |
| NCI-H2126 | 1.08 | 1.01 | 1.08 | 1.06 | 1.04 | 0.344 | 0.345 | 0.355 | 0.994 | 0.83 | 0.831 | 0.868 | 0.791 | 0.905 | 0.578 | 0.533 | 0.518 | 1.19 | 1.1 | 0.999 |
| HARA | 1.05 | 0.916 | 1.04 | 1.27 | 1.01 | 0.246 | 0.244 | 0.27 | 0.652 | 0.263 | 0.414 | 0.642 | 0.575 | 0.552 | 0.438 | 0.357 | 0.304 | 0.437 |  | 0.318 |
| NCI-H23 | 0.493 | 0.304 | 0.462 | 0.56 | 0.425 | 0.484 | 0.526 | 0.478 | 0.2 | 0.206 | 0.255 | 1.24 | 1.24 | 1.14 | 0.828 | 0.743 | 0.699 | 0.22 | 0.293 | 0.246 |
| LK-2 | 0.232 | 0.239 | 0.216 | 0.201 | 0.234 | 0.508 | 0.742 | 0.705 | 0.175 | 0.174 | 0.227 | 1.13 | 0.82 | 0.913 | 0.505 | 0.66 | 0.555 | 0.488 | 0.682 | 0.412 |
| NCI-H358 | 0.612 | 0.618 | 0.439 | 0.446 | 0.375 |  | 0.129 | 0.116 | 0.195 | 0.332 | 0.352 | 0.434 | 0.383 | 0.417 | 0.265 | 0.236 | 0.261 | 0.385 | 0.369 | 0.371 |
| EKVX | 1.05 | 0.859 | 1.03 | 1.04 | 0.894 | 0.401 | 0.341 | 0.324 | 0.84 | 0.576 | 0.73 | 0.187 | 0.188 | 0.171 | 0.226 | 0.199 | 0.228 | 0.664 | 0.708 | 0.503 |
| NCI-H1755 | 0.934 | 1.02 | 0.875 | 0.846 | 0.811 | 0.471 | 0.46 | 0.464 | 0.505 | 0.418 | 0.458 | 1.15 | 0.797 | 1 | 0.638 | 0.614 | 0.569 | 0.468 | 0.421 | 0.485 |
| NCI-H460 | 0.958 |  | 1.02 | 0.9 | 0.436 | 0.16 | 0.133 | 0.113 | 0.034 | 0.0266 | 0.0324 |  | 0.834 | 0.779 | 0.613 | 0.469 | 0.451 | 0.571 | 0.555 | 0.625 |
| NCI-H2405 | 0.863 | 0.786 | 0.864 | 0.828 | 0.794 | 0.554 | 0.506 | 0.55 | 0.718 | 0.616 | 0.646 | 1.01 | 0.962 | 1.15 | 0.386 | 0.402 | 0.396 | 0.907 | 0.665 | 0.705 |
| LU99A | 0.644 | 0.556 | 0.576 | 0.579 | 0.568 | 0.407 | 0.343 | 0.374 | 0.332 | 0.226 | 0.185 | 1.11 | 1.05 | 0.901 | 0.878 | 0.762 | 0.875 | 0.459 | 0.401 | 0.318 |
| NCI-H2087 | 1 | 0.902 | 1.04 | 0.893 | 0.945 | 0.253 | 0.183 | 0.261 | 0.17 | 0.146 | 0.205 | 0.922 | 0.988 | 0.994 | 0.512 | 0.456 | 0.341 | 1.4 | 1.31 | 1.31 |
| HCC-827 | 0.95 | 0.866 | 0.943 | 0.903 | 0.972 | 0.513 | 0.418 | 0.388 | 0.439 | 0.589 | 0.573 | 0.231 | 0.201 | 0.217 | 0.448 | 0.411 | 0.4 | 0.209 | 0.187 | 0.178 |
| NCI-H1944 | 1.11 | 0.98 | 1.16 | 1.21 | 1.03 | 0.342 | 0.303 | 0.332 | 0.946 | 0.786 | 0.68 | 0.897 | 0.856 | 0.951 | 0.209 | 0.19 | 0.197 | 0.546 | 0.501 | 0.581 |
| RERF-LC-KJ | 0.848 | 1.03 | 0.797 | 0.848 | 0.95 | 1.1 | 0.909 | 0.905 | 1.29 | 1.17 | 1.17 | 0.828 | 0.715 | 0.693 | 0.449 | 0.364 | 0.408 | 0.973 | 0.889 | 0.825 |
| NCI-H650 | 0.56 | 0.648 | 0.694 | 0.691 | 0.703 | 0.322 | 0.329 | 0.27 | 1.01 | 0.854 | 0.853 | 1.24 | 0.804 | 1.12 | 0.396 | 0.465 | 0.509 | 0.814 | 1.22 | 0.996 |
| NCI-H3122 | 0.253 | 0.262 | 0.244 | 0.244 | 0.283 | 0.143 | 0.148 | 0.202 | 0.0579 | 0.0537 | 0.115 | 0.975 | 0.897 | 1.03 | 0.345 | 0.334 | 0.338 | 1.02 | 0.935 | 0.801 |
| NCI-H2347 | 0.675 | 0.691 | 0.718 | 0.7 | 0.656 | 0.42 | 0.374 | 0.395 | 0.512 | 0.41 | 0.286 | 1.02 | 1.03 | 0.963 | 0.462 | 0.38 | 0.342 | 0.942 | 0.724 | 0.742 |
| NCI-H322M | 0.861 | 0.999 | 1.1 | 0.95 | 0.953 | 0.503 | 0.497 | 0.51 | 1.13 | 0.946 | 1 | 0.684 | 0.602 | 0.655 | 0.882 | 0.812 | 0.819 | 0.542 | 0.643 | 0.583 |
| NCI-H647 | 1.42 | 0.869 | 1.02 | 1.06 | 1.15 | 0.329 | 0.305 | 0.408 | 0.275 | 0.19 | 0.233 | 1.52 | 1.17 | 1.2 | 0.502 | 0.552 | 0.455 | 0.483 | 0.388 | 0.535 |
| NCI-H1666 | 1.04 | 0.869 | 0.915 | 0.839 | 0.89 | 0.645 | 0.657 | 0.601 | 0.831 | 0.84 | 0.889 | 0.725 | 0.625 | 0.408 | 0.537 | 0.541 | 0.511 | 0.806 | 0.76 | 0.716 |
| LOU-NH91 | 0.938 | 0.728 | 0.739 | 0.706 | 0.685 | 0.524 | 0.527 | 0.561 | 0.404 | 0.353 | 0.285 | 0.859 | 0.832 | 0.854 | 0.607 | 0.562 | 0.661 | 0.801 | 0.8 | 0.796 |
| EMC-BAC-2 | 0.768 | 0.723 | 0.767 | 0.735 | 0.702 | 0.525 | 0.473 | 0.5 | 1.28 | 1.18 | 1.17 | 0.975 | 0.864 | 0.904 | 0.701 | 0.493 | 0.557 | 0.486 | 1.09 | 1.05 |
| NCI-H2085 | 0.677 | 0.715 | 0.774 | 0.775 | 0.791 | 0.432 | 0.431 | 0.413 | 0.46 | 0.371 | 0.428 | 0.759 | 0.677 | 0.65 | 0.805 | 0.695 | 0.741 | 0.941 | 0.799 | 0.913 |
| A-427 | 1.02 | 0.883 | 0.904 | 0.955 | 0.845 | 0.449 | 0.454 | 0.476 | 0.919 | 0.774 | 1.05 | 1.04 | 0.919 | 1.1 | 0.286 | 0.254 | 0.326 | 0.879 | 0.734 | 0.695 |
| NCI-H1993 |  | 0.803 | 0.895 | 0.867 | 0.817 | 0.57 | 0.511 | 0.594 | 0.874 | 0.577 | 0.721 | 0.813 | 0.613 | 0.849 | 0.522 | 0.529 | 0.469 | 0.69 | 0.657 | 0.774 |
| NCI-H1975 | 1.18 | 0.815 | 1.06 | 1.04 | 0.997 | 0.71 | 0.567 | 0.644 | 0.205 | 0.201 | 0.311 | 1.32 | 0.99 | 1.01 | 0.452 | 0.439 | 0.414 | 0.632 | 0.519 | 0.669 |
